# Laboratory results reported in PubChem BioAssay AID1963834 (Molecular Pharmacology Branch, DTP, NCI, 2024).
# pIC50: −log10 of the molar value.
# System: 873145-292-R-J1-PDC complex spheroid viability
# Experiment: Anticancer human tumor 873145-292-R-J1-PDC patient-derived renal clear cell carcinoma cell line growth inhibition [POLQ]
# Conditions: for pIC50: curve of first compound; for viability, T/C: stronger effect = lower value
# Method: Multicellular complex tumor spheroid response to Polymerase (POL) inhibitors (novobiocin, ART-558, RP6685) in combination with a variety of drugs and investigational agents in selected tumor cell lines
# The POL inhibitors (novobiocin, ART-558, and RP6685) were evaluated both individually and in combination with standard of care and investigational anticancer small molecules within a complex spheroid model of solid tumors. . Complex spheroids include a stromal component modeled by human endothelial cells (HUVEC) and fibroblasts modeled by human mesenchymal stem cells (MSCs). The concentration ranges selected for each drug and investigational agent were based upon clinically achievable concentrations if the clinical Cmax of the agent was known.
# Compounds. The drugs and investigational agents: novobiocin (NSC847541), ART-558 (NSC835418), RP-6685 (NSC848927), peposertib (NSC802822), ceralasertib (NSC780249), elimusertib (NSC800525), camonsertib (NSC841442), AZD-1390 (NSC803789), olaparib (NSC753686), talazoparib (NSC767125), rucaparib (NSC756644), sotorasib (NSC818433), MRTX-1133 (NSC836407), SN-38 (NSC673596), topotecan (NSC609699), epotoside (NSC141540), doxorubicin (NSC123127), gemcitabine (NSC613327), 5-fluorouracil (NSC19893), paclitaxel (NSC125973), vemurafenib (NSC761431), MSA-2 (NSC828583), SN-011 (NSC837082), adavosertib (NSC754352), prexasertib (NSC758257), carboplatin (NSC241240) and oxaliplatin (NSC266046), were obtained from the National Cancer Institute (NCI) Developmental Therapeutics Program Chemical Repository (21). The FDA-approved anticancer drug set is available from the Developmental Therapeutics Program at https://dtp.cancer.gov/organization/dscb/obtaining/. […] The stock solutions were prepared in dimethyl sulfoxide (DMSO, Sigma-Aldrich, St. Louis, MO, cat. D2650), except for the platinum compounds which were prepared in saline (Quality Biological, Gaithersburg, MD, cat. 114-055-101), at 800-fold the tested concentration and stored at -70 degrees C prior to their use. All drugs and investigational agents were tested over a range starting from a high concentration at or near the clinical Cmax and decreasing in half-log increments. If the clinical Cmax for an agent had not been determined, the highest concentration tested was 10 microM, except for SN-38, which was tested at a high concentration of 1 microM.
# Cell Culture. All cells were maintained in an incubator at 37 degrees C and 5% CO2 with 95% humidity. The PDC lines were cultured according to standard operating procedures established by the NCI PDMR (https://pdmr.cancer.gov). Table 3 of the manuscript, lists the cell lines along with the number of the three cell types plated to form the mct-spheroids and media for tumor cell growth. After thawing, all PDC lines, except 997537-175-T-J1-PDC and 415267-285-R-J2-PDC, were cultured in Matrigel-coated flasks prepared with a working solution of 1X Ham's F-12 nutrient mix, without supplementation (Thermo Fisher Scientific, cat. 11765054), 100 U/mL penicillin-streptomycin (Thermo Fisher Scientific, cat. 15140122), and 2.5% Matrigel (Corning Inc., Corning, NY, cat. 354248) for the first three passages. The two PDC lines 997537-175-T-J1-PDC and 415267-285-R-J2-PDC were cultured on uncoated flasks. The 857933-349-R-J2-PDC line was cultured in 6C/Colon 1B media containing advanced DMEM/F-12 (Thermo Fisher Scientific, cat. 12634028), 10 mM HEPES (Thermo Fisher Scientific, cat. 15630080), 1X GlutaMAX supplement (Thermo Fisher Scientific, cat. 35050061), 0.1 mg/mL primocin (InvivoGen, San Diego, CA, cat. ant-pm-2), 10% defined fetal bovine serum, heat inactivated (HyClone Laboratories Inc., Logan, UT, cat. SH30070.03HI), 50% L-WRN conditioned media (ATCC, cat. CRL-3276), 1.25 mM N-Acetyl-L-cysteine (Sigma-Aldrich, cat. A9165), 10 mM nicotinamide (Sigma-Aldrich, cat. N0636), 1X B-27 supplement (Thermo Fisher Scientific, cat. 17504044), 1X N-2 supplement (Thermo Fisher Scientific, cat. […]
# 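Further: spheroids exposed to compounds for 7 days before viability readout.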
# 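Wherever viability, T/C is given: luminescence signal used as surrogate for viable cell content; 100% = DMSO vehicle control viability.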
compound,measurement,setting,value
COc1cc2cc(C(=O)CCC(=O)O)sc2cc1OC + Nc1ccc(C#CCN(C(=O)Cc2ncc(C(F)(F)F)cc2C(F)(F)F)c2ccc(F)cc2)nn1,pIC50,second compound 0.0316 µM,< 5.00
same,pIC50,second compound 0.1 µM,< 5.00
same,pIC50,second compound 0.316 µM,< 5.00
same,pIC50,second compound 1 µM,< 5.00
same,pIC50,second compound 3.16 µM,< 5.00
same,pIC50,second compound 10 µM,< 5.00
same,"viability, T/C","second compound 0.0316 µM, first compound 0.0316 µM",94.6%
same,"viability, T/C","second compound 0.0316 µM, first compound 0.1 µM",116%
same,"viability, T/C","second compound 0.0316 µM, first compound 0.316 µM",95.8%
same,"viability, T/C","second compound 0.0316 µM, first compound 1 µM",97.8%
same,"viability, T/C","second compound 0.0316 µM, first compound 3.16 µM",104%
same,"viability, T/C","second compound 0.0316 µM, first compound 10 µM",102%
same,"viability, T/C","second compound 0.1 µM, first compound 0.0316 µM",106%
same,"viability, T/C","second compound 0.1 µM, first compound 0.1 µM",115%
same,"viability, T/C","second compound 0.1 µM, first compound 0.316 µM",92.3%
same,"viability, T/C","second compound 0.1 µM, first compound 1 µM",107%
same,"viability, T/C","second compound 0.1 µM, first compound 3.16 µM",121%
same,"viability, T/C","second compound 0.1 µM, first compound 10 µM",91.5%
same,"viability, T/C","second compound 0.316 µM, first compound 0.0316 µM",104%
same,"viability, T/C","second compound 0.316 µM, first compound 0.1 µM",116%
same,"viability, T/C","second compound 0.316 µM, first compound 0.316 µM",96.8%
same,"viability, T/C","second compound 0.316 µM, first compound 1 µM",99.3%
same,"viability, T/C","second compound 0.316 µM, first compound 3.16 µM",97.2%
same,"viability, T/C","second compound 0.316 µM, first compound 10 µM",89.8%
same,"viability, T/C","second compound 1 µM, first compound 0.0316 µM",104%
same,"viability, T/C","second compound 1 µM, first compound 0.1 µM",105%
same,"viability, T/C","second compound 1 µM, first compound 0.316 µM",112%
same,"viability, T/C","second compound 1 µM, first compound 1 µM",105%
same,"viability, T/C","second compound 1 µM, first compound 3.16 µM",104%
same,"viability, T/C","second compound 1 µM, first compound 10 µM",92.5%
same,"viability, T/C","second compound 3.16 µM, first compound 0.0316 µM",112%
same,"viability, T/C","second compound 3.16 µM, first compound 0.1 µM",104%
same,"viability, T/C","second compound 3.16 µM, first compound 0.316 µM",91.8%
same,"viability, T/C","second compound 3.16 µM, first compound 1 µM",106%
same,"viability, T/C","second compound 3.16 µM, first compound 3.16 µM",103%
same,"viability, T/C","second compound 3.16 µM, first compound 10 µM",103%
same,"viability, T/C","second compound 10 µM, first compound 0.0316 µM",113%
same,"viability, T/C","second compound 10 µM, first compound 0.1 µM",105%
same,"viability, T/C","second compound 10 µM, first compound 0.316 µM",119%
same,"viability, T/C","second compound 10 µM, first compound 1 µM",110%
same,"viability, T/C","second compound 10 µM, first compound 3.16 µM",103%
same,"viability, T/C","second compound 10 µM, first compound 10 µM",105%
